Legend:
Type in all cases: cell-based
[1] = target: NK1 (Homo sapiens, UniProt P25103); test: Signal transduction (ST), intracellular Ca++ (FLIPR), NK1 antagonism
Method in brief: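 Confluent cells were loaded with 2 μM Fluo3 with probenecid for 1 h at 37°C, then preincubated with antagonist concentration ranges for 20 min at RT before agonist addition. Peak FLIPR calcium transient was taken as signal; IC50 from non-linear regression of sigmoidal curves.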

[2] = target: T1, NK2 (Homo sapiens, UniProt P21452); test: Signal transduction (ST), intracellular Ca++ (FLIPR), NK2
T1 sequence (P21452 1-398): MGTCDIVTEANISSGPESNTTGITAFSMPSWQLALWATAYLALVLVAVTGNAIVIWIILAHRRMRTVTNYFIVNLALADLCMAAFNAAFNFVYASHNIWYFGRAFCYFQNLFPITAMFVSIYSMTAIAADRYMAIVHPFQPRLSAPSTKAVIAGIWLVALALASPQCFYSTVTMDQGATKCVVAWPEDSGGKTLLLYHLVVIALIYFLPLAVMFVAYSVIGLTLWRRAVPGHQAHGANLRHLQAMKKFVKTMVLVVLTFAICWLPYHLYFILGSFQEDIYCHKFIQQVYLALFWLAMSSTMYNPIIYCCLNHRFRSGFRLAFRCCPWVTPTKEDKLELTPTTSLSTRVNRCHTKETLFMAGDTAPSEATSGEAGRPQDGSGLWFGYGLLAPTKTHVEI

[3] = target: T2, NK3 (Homo sapiens, UniProt P29371); test: Signal transduction (ST), intracellular Ca++ (FLIPR), NK3
T2 sequence (P29371 1-465): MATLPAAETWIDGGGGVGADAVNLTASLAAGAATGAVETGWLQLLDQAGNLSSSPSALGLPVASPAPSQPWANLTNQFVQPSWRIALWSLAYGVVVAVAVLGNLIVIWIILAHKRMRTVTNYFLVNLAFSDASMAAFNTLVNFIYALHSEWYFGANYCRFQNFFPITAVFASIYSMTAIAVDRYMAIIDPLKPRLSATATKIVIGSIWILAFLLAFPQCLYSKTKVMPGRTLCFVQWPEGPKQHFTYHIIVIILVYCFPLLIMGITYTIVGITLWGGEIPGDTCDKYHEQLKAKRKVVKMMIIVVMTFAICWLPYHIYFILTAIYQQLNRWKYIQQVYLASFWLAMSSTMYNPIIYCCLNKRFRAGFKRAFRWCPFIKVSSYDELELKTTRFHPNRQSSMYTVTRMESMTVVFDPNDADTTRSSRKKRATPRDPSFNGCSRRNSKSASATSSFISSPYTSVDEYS

NK1, sequence (P25103 whole entry): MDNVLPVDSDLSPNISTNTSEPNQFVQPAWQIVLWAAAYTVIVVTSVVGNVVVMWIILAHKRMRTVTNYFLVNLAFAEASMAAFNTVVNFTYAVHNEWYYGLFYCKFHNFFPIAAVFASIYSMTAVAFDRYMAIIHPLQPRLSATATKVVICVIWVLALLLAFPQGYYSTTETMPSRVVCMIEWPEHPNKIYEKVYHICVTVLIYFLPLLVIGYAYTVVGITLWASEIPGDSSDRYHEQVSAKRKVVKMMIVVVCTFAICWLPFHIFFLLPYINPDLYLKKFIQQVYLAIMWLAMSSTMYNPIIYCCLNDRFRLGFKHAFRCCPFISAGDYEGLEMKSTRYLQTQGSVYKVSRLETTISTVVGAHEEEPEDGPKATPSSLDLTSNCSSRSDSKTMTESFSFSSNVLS

Structure (SMILES) | pIC50 NK1 [1] | pIC50 NK2 [2] | pIC50 NK3 [3] | IC50 ([1]; read-out: pIC50 NK1 (converted)) | IC50 ([2]; read-out: pIC50 NK2 (converted)) | IC50 ([3]; read-out: pIC50 NK3 (converted))
O=C(c1cc(C(F)(F)F)cc(C(F)(F)F)c1)N1CC[C@H](N2CCN(C3CCCN(S(=O)(=O)c4cc(Cl)sc4Cl)C3)CC2)C[C@H]1Cc1ccccc1 (stereo partly drawn) [Compound 40] | 7.6 | 5.1 | 6.6 |  |  | 
O=C(c1cc(C(F)(F)F)cc(C(F)(F)F)c1)N1CCC(N2CCN(C3CCCN(S(=O)(=O)Cc4ccccc4)C3)CC2)CC1Cc1ccccc1 (stereo not drawn) [Compound 49] |  |  |  | 15.8 nM | 631 nM | 316 nM

— US7572786B2, “Substituted 1-piperidin-3-yl-4-piperidin-4-yl-piperazine derivatives and their use as neurokinin antagonists” (Janssen Pharmaceutica, N.V., priority 2002, dated 2009)
